The subject of this assay is Aspergillus spores. As to the kind of experiment: Effect of ions on fungal growth. In kind it is cell-based. To be noted: 1000 Aspergillus spores/dish, 37° C., day 3 of culture, FIG. 8B. The method, then: To investigate the effect of ions on fungal growth, salt solutions were added at a high molecular concentration (0.1 M, 10 μL) and a low molecular concentration ([…], 10 μL) and fungi were cultured at 37° C. under conditions of 1000 Aspergillus spores/dish. The results are illustrated in FIG. 8B based on the colonies on day 3 of culture.

The source of these data is US12296024B2, “Modified zinc oxide nanocomposite, antibiotic composition comprising the same, and combination preparation with the same” (UIF (University Industry Foundation), Yonsei University, priority 2021, dated 2025).

For the compound `[Cl-].[Cl-].[Zn+2]` [ZnCl2], the “effect of ions on fungal growth compared with Na+, Mg2+ or NH4+ ions” value was “greater effect”. Under `O=[N+]([O-])[O-].O=[N+]([O-])[O-].[Zn+2]` [Zn(NO3)2] stands “greater effect”.
